Source: PubChem BioAssay (NCI)
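The compound was tested at five concentrations on cells cultured in 96-well plates, with a 48-hour exposure period. TGI denotes the concentration required for complete inhibition of growth.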

How the values were obtained:
Test in all cases: inhibition of tumour cell growth, NCI panel, 48 h
RXF 393 renal = test system: RXF 393 renal
ACHN renal = test system: ACHN renal
SR leukemia = test system: SR leukemia
SW-620 colon = test system: SW-620 colon
NCI-H522 lung = test system: NCI-H522 lung
UACC-257 melanoma = test system: UACC-257 melanoma
UACC-62 melanoma = test system: UACC-62 melanoma
RPMI-8226 leukemia = test system: RPMI-8226 leukemia
UO-31 renal = test system: UO-31 renal
HOP-18 NSCLC = test system: HOP-18 NSCLC
LXFL 529 NSCLC = test system: LXFL 529 NSCLC

SMILES | TGI (RXF 393 renal) [µM] | TGI (ACHN renal) [µM] | TGI (SR leukemia) [µM] | TGI (SW-620 colon) [µM] | TGI (NCI-H522 lung) [µM] | TGI (UACC-257 melanoma) [µM] | TGI (UACC-62 melanoma) [µM] | TGI (RPMI-8226 leukemia) [µM] | TGI (UO-31 renal) [µM] | TGI (HOP-18 NSCLC) [µM] | TGI (LXFL 529 NSCLC) [µM]
NC(=O)CC[C@H]1C(=O)N=C(N)N1C(=O)OCc1ccccc1 | > 100 | > 100 | > 100 | > 100 | > 100 | > 100 | > 100 | > 100 | > 100 | – | –
Cc1cc(=O)[nH]c(NN2C(Cl)C(=O)C2c2ccco2)n1 (configuration not stated) | > 100 | > 100 | > 100 | > 100 | – | > 100 | 63.6 | 38.3 | > 100 | 58.8 | > 100
CCOC(=O)c1nc2ccccc2nc1Nc1ccc(F)cc1 | 26.7 | > 93.6 | > 100 | > 100 | > 100 | > 100 | > 100 | > 100 | > 100 | – | –
O=C(NCCNCCO)N/N=C/c1ccccc1 | > 100 | > 100 | – | > 100 | > 100 | > 100 | > 100 | – | – | > 100 | > 100
COc1ccc(OC)c(-c2cn3c(n2)sc2ccccc23)c1 | > 100 | > 100 | > 100 | > 100 | > 100 | > 100 | > 100 | > 100 | > 100 | – | –
Cc1cn(C2CC(SCCO)C(CO)O2)c(=O)[nH]c1=O (configuration not stated) | > 100 | > 100 | > 100 | > 100 | > 100 | > 100 | > 100 | > 100 | > 100 | – | –
CC(=O)c1cc(S(=O)(=O)c2ccc(O)c(C(C)=O)c2)ccc1O | > 100 | > 100 | > 100 | > 100 | > 100 | > 100 | > 100 | > 100 | > 100 | – | –
O=C1/C(=C(/Br)I)c2ccccc2-c2ccccc21 | 13.1 | 19 | > 30.5 | 8.12 | 5.27 | 18.5 | 21.2 | 8.37 | 6.2 | – | –
CCOC(=O)c1c(SCCN2CCCCC2)n(-c2ccccc2)c(=S)n(-c2ccccc2)c1=O | 25.7 | 34.7 | > 20.4 | 13.8 | 35.4 | 17.1 | 68.9 | > 21.9 | 33.9 | – | –
O=C(c1ccccc1)c1ccc2nc(-c3c(Cl)c(Cl)c(Cl)c(Cl)c3C(=O)Nc3ccco3)[nH]c2c1 | > 100 | > 100 | 58.8 | > 100 | 81.4 | > 100 | > 100 | > 100 | > 100 | – | –
COCCN(C(=O)c1ccccc1)C1CCC(=O)c2[nH]c3ccccc3c21 (configuration not stated) | 15.2 | 30.4 | > 24.8 | 23.3 | 6.93 | > 66.7 | 36.5 | 58.6 | 25.2 | – | –
CC(=O)Nc1nc(C)c(S(=O)(=O)NC(=O)N2c3ccccc3CCc3ccccc32)s1 | > 100 | > 100 | > 100 | > 100 | > 100 | > 100 | > 100 | > 100 | > 100 | – | –
CC1Cc2c(cc(N)nc2Br)NC1=O (configuration not stated) | > 100 | > 100 | > 100 | > 100 | > 100 | > 100 | > 100 | > 100 | > 100 | – | –
